Assay results from patent publication US5919768A, “Di- and trivalent small molecule selectin inhibitors” (Texas Biotechnology Corporation, priority 1998, dated 1999).

Assays:
E-selectin = target: T1, E-selectin (Homo sapiens, UniProt P16581); assay: Cell-protein assay: inhibition of binding of HL60 cells (expressing sialyl-Lewis^x) to E-selectin; conditions: for IC50: HL60 cell binding to selectin fusion protein on magnetic beads
T1 construct: amino terminal lectin, EGF, and complement regulatory-like repeats (CR) 1 and 2; made in house; host or cells: SF21 insect cells, baculovirus (BakPAK)
T1 sequence (P16581 22-301): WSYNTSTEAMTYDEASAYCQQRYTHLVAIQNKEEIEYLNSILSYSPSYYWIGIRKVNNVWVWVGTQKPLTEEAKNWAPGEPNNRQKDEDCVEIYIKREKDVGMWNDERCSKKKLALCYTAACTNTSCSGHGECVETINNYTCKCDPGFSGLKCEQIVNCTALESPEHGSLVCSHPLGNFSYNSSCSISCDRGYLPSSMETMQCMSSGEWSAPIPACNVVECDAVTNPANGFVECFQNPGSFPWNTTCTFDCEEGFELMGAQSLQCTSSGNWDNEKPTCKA
Procedure: (§1) Compounds were assayed for their ability to inhibit the binding of E-, P-, and/or L-selectin to sialyl-Lewis^x.
(§2) The E-selectin binding assays involved assessing the ability of HL60 cells that express sialyl-Lewis^x and Lewis^x to purified E-selectin, P-selectin and L-selectin recombinant proteins (cell-protein assay). A similar binding assay utilizing purified glycolipids and purified L-selectin recombinant protein (glycolipid-protein) was used to assess L-selectin binding.
(§3) All selectin fusion cassettes were generated by PCR from the E-selectin cDNA purchased from R&D Systems (Minneapolis, Minn.), and from the P-selectin and L-selectin cDNAs that were PCR cloned from total RNA extracted from human placenta. The mouse IgG cDNA was cloned from PCR amplified cDNA generated from RNA extracted from the hybridoma cell line 402C10. All fusion cassettes were expressed from baculovirus vectors using the BakPAK method and SF21 cells purchased from Clonetech.
(§4) Recombinant fusion proteins were purified from baculovirus infected culture supernatants by immunoprecipitation using Dynal™ goat anti-mouse IgG coated magnetic beads. Mock beads were generated from uninfected SF21 culture supernatants.
(§5) HL60 cells (10^7 cells) were fluorescently labeled with calcein AMC-3099 (Molecular Probes) in RPMI 1640 with 10% fetal calf serum (FCS). The magnetic beads (7 μl, 4×10^6 beads/ml) were incubated in duplicate wells of a flexible 96 well microtiter plate along with 7 μl of compound at various concentrations and 7 μl of calcein-labeled HL60 cells. The plates were incubated for ten minutes at room temperature. The plate was then placed on a magnetic separator and incubated for 2 more minutes. While the assay plate remained on the separator, unbound HL60 cells were removed and the wells were washed twice with phosphate buffered saline (PBS) to remove any remaining unbound cells. The HL60 cells remaining bound to the beads were inspected by microscopy and then lysed by adding […] of a 1% solution of NP40 in PBS. Binding was quantitated fluorimetrically using a Millipore Cytofluor 2350 fluorimeter.

P-selectin = target: T2, P-selectin (Homo sapiens, UniProt P16109); assay: Cell-protein assay: inhibition of binding of HL60 cells (expressing sialyl-Lewis^x) to P-selectin; conditions: HL60 cell binding to selectin fusion protein on magnetic beads
T2 construct: amino terminal lectin, EGF, and complement regulatory-like repeats (CR) 1 and 2; made in house; host or cells: SF21 insect cells, baculovirus (BakPAK)
T2 sequence (P16109 42-321): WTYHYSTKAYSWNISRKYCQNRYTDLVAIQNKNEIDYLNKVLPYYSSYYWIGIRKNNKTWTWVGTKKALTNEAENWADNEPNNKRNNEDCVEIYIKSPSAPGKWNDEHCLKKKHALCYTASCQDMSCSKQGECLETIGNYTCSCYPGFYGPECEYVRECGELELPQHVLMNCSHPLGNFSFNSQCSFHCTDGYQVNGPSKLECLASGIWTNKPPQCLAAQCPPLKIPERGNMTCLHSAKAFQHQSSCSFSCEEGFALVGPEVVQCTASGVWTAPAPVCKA
Procedure: as §1, §2, §3, §4, §5

L-selectin = target: T3, L-selectin (Homo sapiens, UniProt P14151); assay: Selectin binding assay: inhibition of binding of L-selectin to sialyl-Lewis^x (cell-protein; glycolipid-protein assay also mentioned); conditions: for IC50: in vitro selectin assay
T3 construct: amino terminal lectin, EGF, and complement regulatory-like repeats (CR) 1 and 2; made in house; host or cells: SF21 insect cells, baculovirus (BakPAK)
T3 sequence (P14151 39-318): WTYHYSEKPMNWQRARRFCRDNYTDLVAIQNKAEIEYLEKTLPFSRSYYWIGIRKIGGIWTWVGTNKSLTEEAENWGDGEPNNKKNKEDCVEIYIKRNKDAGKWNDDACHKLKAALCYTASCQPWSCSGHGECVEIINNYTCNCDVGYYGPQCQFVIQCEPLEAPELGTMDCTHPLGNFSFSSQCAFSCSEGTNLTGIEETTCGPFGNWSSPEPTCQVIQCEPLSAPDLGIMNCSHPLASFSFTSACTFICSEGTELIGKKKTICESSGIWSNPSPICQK
Procedure: as §1, §2, §3, §4, §5

Row | IC50 (P-selectin) [µM] | IC50 (L-selectin) [mM] | IC50 (E-selectin) [mM] | SMILES | other results
1 | 1000 | – | 1 | O=C(O)Cc1cccc(-c2cc(CCCCCCCCCc3ccc(O[C@H]4O[C@H](CO)[C@@H](O)[C@H](O)[C@@H]4O)c(-c4cccc(CC(=O)O)c4)c3)ccc2O[C@H]2O[C@H](CO)[C@@H](O)[C@H](O)[C@@H]2O)c1 [Compound A-9] | –
2 | – | 2 | – | O=C(O)Cc1cccc(-c2cc(CCCCc3ccc(O[C@H]4O[C@H](CO)[C@@H](O)[C@H](O)[C@@H]4O)c(-c4cccc(CC(=O)O)c4)c3)ccc2O[C@H]2O[C@H](CO)[C@@H](O)[C@H](O)[C@@H]2O)c1 [Compound A-4, 1,4-Bis-[3-(3-carboxymethylphenyl)-4-(2-α-D-mannopyranosyloxy)phenyl]butane] | –
3 | 400 | – | 0.5 | O=C(O)Cc1cccc(-c2cc(CCCCCCCc3ccc(O[C@H]4O[C@H](CO)[C@@H](O)[C@H](O)[C@@H]4O)c(-c4cccc(CC(=O)O)c4)c3)ccc2O[C@H]2O[C@H](CO)[C@@H](O)[C@H](O)[C@@H]2O)c1 [Compound A-7] | –
4 | 300 | 0.3 | 0.4 | O=C(O)Cc1cccc(-c2cc(CCCCCc3ccc(O[C@H]4O[C@H](CO)[C@@H](O)[C@H](O)[C@@H]4O)c(-c4cccc(CC(=O)O)c4)c3)ccc2O[C@H]2O[C@H](CO)[C@@H](O)[C@H](O)[C@@H]2O)c1 [Compound A-5] | –

Continued, compound first:

Row | SMILES | IC50 (P-selectin) [µM] | IC50 (L-selectin) [mM] | IC50 (E-selectin) [mM] | other results
5 | O=C(O)Cc1cccc(-c2cc(Cc3cccc(Cc4ccc(O[C@H]5O[C@H](CO)[C@@H](O)[C@H](O)[C@@H]5O)c(-c5cccc(CC(=O)O)c5)c4)c3)ccc2O[C@H]2O[C@H](CO)[C@@H](O)[C@H](O)[C@@H]2O)c1 [B-m] | 220 | 3 | – | inhibition at 1000 µM (E-selectin; at 1 mM, read-out: E-Selectin % inhib.): 0%
6 | O=C(O)Cc1cccc(-c2cc(CCCC(=O)N3CCC(CCCC4CCN(C(=O)CCCc5ccc(O[C@H]6O[C@H](CO)[C@@H](O)[C@H](O)[C@@H]6O)c(-c6cccc(CC(=O)O)c6)c5)CC4)CC3)ccc2O[C@H]2O[C@H](CO)[C@@H](O)[C@H](O)[C@@H]2O)c1 [G] | 1000 | – | – | inhibition at 3000 µM (L-selectin; at 3 mM, read-out: L-Selectin % inhib.): 0%
7 | O=C(O)COc1cccc(-c2cc(CCCCCCc3ccc(O[C@H]4O[C@H](CO)[C@@H](O)[C@H](O)[C@@H]4O)c(-c4cccc(OCC(=O)O)c4)c3)ccc2O[C@H]2O[C@H](CO)[C@@H](O)[C@H](O)[C@@H]2O)c1 [E] | 540 | 1.4 | 3.27 | –
8 | O=C(O)Cc1cccc(-c2cc(Cc3ccc(Oc4ccc(Cc5ccc(O[C@H]6O[C@H](CO)[C@@H](O)[C@H](O)[C@@H]6O)c(-c6cccc(CC(=O)O)c6)c5)cc4)cc3)ccc2O[C@H]2O[C@H](CO)[C@@H](O)[C@H](O)[C@@H]2O)c1 [C] | 700 | – | – | inhibition at 2000 µM (L-selectin; at 2 mM, read-out: L-Selectin % inhib.): 0%
9 | O=C(O)Cc1cccc(-c2cc(Cc3cc(Cc4ccc(O[C@H]5O[C@H](CO)[C@@H](O)[C@H](O)[C@@H]5O)c(-c5cccc(CC(=O)O)c5)c4)cc(Cc4ccc(O[C@H]5O[C@H](CO)[C@@H](O)[C@H](O)[C@@H]5O)c(-c5cccc(CC(=O)O)c5)c4)c3)ccc2O[C@H]2O[C@H](CO)[C@@H](O)[C@H](O)[C@@H]2O)c1 [H] | 200 | 0.5 | 0.7 | –
10 | O=C(O)Cc1cccc(-c2cc(C(=O)CCCCC(=O)c3ccc(O[C@H]4O[C@H](CO)[C@@H](O)[C@H](O)[C@@H]4O)c(-c4cccc(CC(=O)O)c4)c3)ccc2O[C@H]2O[C@H](CO)[C@@H](O)[C@H](O)[C@@H]2O)c1 [F] | 1000 | 3 | 1 | –
11 | O=C(O)Cc1cccc(-c2cc(Cc3ccc(Cc4ccc(O[C@H]5O[C@H](CO)[C@@H](O)[C@H](O)[C@@H]5O)c(-c5cccc(CC(=O)O)c5)c4)cc3)ccc2O[C@H]2O[C@H](CO)[C@@H](O)[C@H](O)[C@@H]2O)c1 [B-p] | 2000 | 3 | 2 | –
12 | O=C(O)Cc1cccc(-c2cc(C(=O)CSCc3cc(CSCC(=O)c4ccc(O[C@H]5O[C@H](CO)[C@@H](O)[C@H](O)[C@@H]5O)c(-c5cccc(CC(=O)O)c5)c4)cc(CSCC(=O)c4ccc(O[C@H]5O[C@H](CO)[C@@H](O)[C@H](O)[C@@H]5O)c(-c5cccc(CC(=O)O)c5)c4)c3)ccc2O[C@H]2O[C@H](CO)[C@@H](O)[C@H](O)[C@@H]2O)c1 [J] | – | 2 | 4 | –
13 | O=C(O)Cc1cccc(-c2cc(CCCSCCCSCCCc3ccc(O[C@H]4O[C@H](CO)[C@@H](O)[C@H](O)[C@@H]4O)c(-c4cccc(CC(=O)O)c4)c3)ccc2O[C@H]2O[C@H](CO)[C@@H](O)[C@H](O)[C@@H]2O)c1 [D] | 500 | – | – | inhibition at 2000 µM (E-selectin; at 2 mM, read-out: E-Selectin % inhib.): 29%
